How the values were obtained:
[1] = tested on: Candida albicans; assay: Antifungal activity against Candida albicans ATCC SC5314 assessed as inhibition of visible microbe growth by broth microdilution method; type: functional
[2] = tested on: Candida albicans; assay: Antifungal activity against Candida albicans CPCC 400523 assessed as inhibition of visible microbe growth by broth microdilution method; type: functional
[3] = tested on: Cryptococcus neoformans; assay: Antifungal activity against Cryptococcus neoformans cgmcc 2.3161 assessed as inhibition of visible microbe growth by broth microdilution method; type: functional
[4] = tested on: Candida tropicalis; assay: Antifungal activity against Candida tropicalis cgmcc 2.3739 assessed as inhibition of visible microbe growth by broth microdilution method; type: functional
[5] = tested on: Aspergillus fumigatus; assay: Antifungal activity against Aspergillus fumigatus cgmcc 3.7795 assessed as inhibition of visible microbe growth by broth microdilution method; type: functional
[6] = tested on: Candida albicans; assay: Antifungal activity against fluconazole-resistant Candida albicans 100 assessed as inhibition of visible microbe growth by broth microdilution method; type: functional
[7] = tested on: Candida albicans; assay: Antifungal activity against fluconazole-resistant Candida albicans 103 assessed as inhibition of visible microbe growth by broth microdilution method; type: functional
[8] = molecular target: T1, Cytochrome P450 1A2 (Homo sapiens, UniProt P05177); assay: Inhibition of CYP1A2 in human liver microsomes using phenacetin pre-incubated for 10 mins before NADPH addition and measured after 10 mins by LC/MS/MS analysis; type: ADME
T1 sequence (P05177 whole entry): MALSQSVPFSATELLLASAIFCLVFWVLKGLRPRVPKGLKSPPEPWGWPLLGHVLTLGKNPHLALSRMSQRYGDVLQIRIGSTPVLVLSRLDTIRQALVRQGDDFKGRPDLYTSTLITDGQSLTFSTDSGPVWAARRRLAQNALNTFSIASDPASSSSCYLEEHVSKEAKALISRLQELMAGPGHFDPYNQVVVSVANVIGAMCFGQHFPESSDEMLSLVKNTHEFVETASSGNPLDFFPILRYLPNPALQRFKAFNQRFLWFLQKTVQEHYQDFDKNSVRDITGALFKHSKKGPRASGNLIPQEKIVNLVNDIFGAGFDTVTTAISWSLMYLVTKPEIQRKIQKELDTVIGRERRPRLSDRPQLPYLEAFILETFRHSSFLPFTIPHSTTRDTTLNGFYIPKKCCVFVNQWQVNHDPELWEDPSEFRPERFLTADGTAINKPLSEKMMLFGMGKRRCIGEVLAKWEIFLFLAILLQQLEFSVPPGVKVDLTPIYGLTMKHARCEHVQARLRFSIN

[9] = molecular target: Cytochrome P450 2C9 (Homo sapiens, UniProt P11712); assay: Inhibition of CYP2C9 in human liver microsomes using diclofenac pre-incubated for 10 mins before NADPH addition and measured after 10 mins by LC/MS/MS analysis; type: ADME
[10] = molecular target: Cytochrome P450 2C19 (Homo sapiens, UniProt P33261); assay: Inhibition of CYP2C19 in human liver microsomes using S-mephenytoin pre-incubated for 10 mins before NADPH addition and measured after 10 mins by LC/MS/MS analysis; type: ADME
[11] = molecular target: Cytochrome P450 2D6 (Homo sapiens, UniProt P10635); assay: Inhibition of CYP2D6 in human liver microsomes using dextromethorphan pre-incubated for 10 mins before NADPH addition and measured after 10 mins by LC/MS/MS analysis; type: ADME
[12] = molecular target: Cytochrome P450 3A4 (Homo sapiens, UniProt P08684); assay: Inhibition of CYP3A4 in human liver microsomes using midazolam pre-incubated for 10 mins before NADPH addition and measured after 10 mins by LC/MS/MS analysis; type: ADME
[13] = tested on: A549; assay: Cytotoxicity in human A549 cells assessed as reduction in cell viability incubated for 24 hrs by MTT assay; type: cell-based; details: A549, 24 h
[14] = tested on: U-87 MG; assay: Cytotoxicity in human U87 cells assessed as reduction in cell viability incubated for 24 hrs by MTT assay; type: cell-based, U-87MG ATCC

Chain of Cytochrome P450 2C9 (P11712 whole entry): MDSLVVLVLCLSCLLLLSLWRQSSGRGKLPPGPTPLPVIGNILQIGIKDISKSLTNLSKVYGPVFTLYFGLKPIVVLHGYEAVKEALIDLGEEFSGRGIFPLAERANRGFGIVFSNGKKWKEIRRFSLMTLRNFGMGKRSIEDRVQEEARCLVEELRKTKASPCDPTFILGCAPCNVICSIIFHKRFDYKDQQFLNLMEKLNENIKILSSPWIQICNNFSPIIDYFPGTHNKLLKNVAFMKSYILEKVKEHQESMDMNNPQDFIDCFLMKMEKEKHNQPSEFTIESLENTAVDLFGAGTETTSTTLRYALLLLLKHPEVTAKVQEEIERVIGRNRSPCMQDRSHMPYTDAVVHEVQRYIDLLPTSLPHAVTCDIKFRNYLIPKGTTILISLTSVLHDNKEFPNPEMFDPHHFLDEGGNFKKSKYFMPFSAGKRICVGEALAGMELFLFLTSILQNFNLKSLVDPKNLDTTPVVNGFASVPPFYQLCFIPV
Chain of Cytochrome P450 3A4 (P08684 whole entry): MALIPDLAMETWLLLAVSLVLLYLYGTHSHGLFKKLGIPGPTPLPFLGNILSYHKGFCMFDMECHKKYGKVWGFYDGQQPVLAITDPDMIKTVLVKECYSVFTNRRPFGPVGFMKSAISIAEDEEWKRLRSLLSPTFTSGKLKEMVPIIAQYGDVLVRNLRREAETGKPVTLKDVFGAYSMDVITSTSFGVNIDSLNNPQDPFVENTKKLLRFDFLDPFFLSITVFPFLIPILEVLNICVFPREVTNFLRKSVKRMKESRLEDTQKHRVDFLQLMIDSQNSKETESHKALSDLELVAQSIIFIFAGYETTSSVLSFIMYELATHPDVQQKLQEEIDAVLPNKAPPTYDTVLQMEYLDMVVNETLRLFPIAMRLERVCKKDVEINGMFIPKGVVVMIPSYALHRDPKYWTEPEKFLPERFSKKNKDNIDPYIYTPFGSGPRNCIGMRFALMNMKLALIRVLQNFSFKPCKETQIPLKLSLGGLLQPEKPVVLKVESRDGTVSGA
Chain of Cytochrome P450 2C19 (P33261 whole entry): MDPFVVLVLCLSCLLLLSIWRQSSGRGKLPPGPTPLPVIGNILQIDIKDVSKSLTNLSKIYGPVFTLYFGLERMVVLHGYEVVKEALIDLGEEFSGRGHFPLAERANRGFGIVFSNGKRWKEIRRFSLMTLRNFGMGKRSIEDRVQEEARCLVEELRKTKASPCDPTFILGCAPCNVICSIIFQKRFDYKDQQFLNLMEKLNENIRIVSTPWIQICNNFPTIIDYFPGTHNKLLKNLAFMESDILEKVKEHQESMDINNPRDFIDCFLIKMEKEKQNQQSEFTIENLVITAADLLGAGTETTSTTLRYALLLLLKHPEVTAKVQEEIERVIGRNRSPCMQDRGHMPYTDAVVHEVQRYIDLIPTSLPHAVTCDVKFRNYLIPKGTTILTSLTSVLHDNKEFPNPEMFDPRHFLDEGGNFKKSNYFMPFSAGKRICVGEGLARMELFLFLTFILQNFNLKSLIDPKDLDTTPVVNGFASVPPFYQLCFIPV
Chain of Cytochrome P450 2D6 (P10635 whole entry): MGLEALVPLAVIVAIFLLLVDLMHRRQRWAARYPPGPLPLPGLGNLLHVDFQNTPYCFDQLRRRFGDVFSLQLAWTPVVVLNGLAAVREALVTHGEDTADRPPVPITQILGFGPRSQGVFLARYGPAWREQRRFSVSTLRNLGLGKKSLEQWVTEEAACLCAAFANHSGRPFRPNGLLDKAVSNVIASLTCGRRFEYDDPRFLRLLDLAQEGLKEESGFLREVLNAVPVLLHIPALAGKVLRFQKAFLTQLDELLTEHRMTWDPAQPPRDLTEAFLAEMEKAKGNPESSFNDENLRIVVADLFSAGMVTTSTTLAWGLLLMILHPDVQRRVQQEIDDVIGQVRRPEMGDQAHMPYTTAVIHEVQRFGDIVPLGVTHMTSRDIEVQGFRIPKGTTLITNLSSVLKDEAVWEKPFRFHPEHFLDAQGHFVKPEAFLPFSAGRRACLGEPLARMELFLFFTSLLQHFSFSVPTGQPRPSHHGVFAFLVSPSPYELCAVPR

Structure (SMILES) | MIC [1] | MIC [2] | MIC [3] | MIC [4] | MIC [5] | MIC [6] | MIC [7] | IC50 [8] | IC50 [9] | IC50 [10] | IC50 [11] | IC50 [12] | IC50 [13] | IC50 [14]
CCC(C)n1ncn(-c2ccc(N3CCN(c4ccc(OCC5COC(Cn6cncn6)(c6ccc(Cl)cc6Cl)O5)cc4)CC3)cc2)c1=O (centres undefined) [ITRACONAZOLE] | 0.0625 µg/mL | 0.25 µg/mL | 1 µg/mL | 0.5 µg/mL | 4 µg/mL |  |  |  |  |  |  |  |  | 
CC(C)COC(=O)[C@H](Cn1ccnc1)NC(=O)c1ccc(-c2ccccc2)cc1Cl | 4 µg/mL | 8 µg/mL | 8 µg/mL | 0.25 µg/mL | > 16 µg/mL |  |  |  |  |  |  |  |  | 
CC(C)COC(=O)[C@H](Cn1ccnc1)NC(=O)c1ccc(-c2ccccc2)c(Cl)c1 | 4 µg/mL | 8 µg/mL | 8 µg/mL | 0.25 µg/mL | > 16 µg/mL |  |  |  |  |  |  |  |  | 
Cc1cc(C(=O)N[C@@H](Cn2ccnc2)C(=O)OC(C)C)ccc1-c1ccccc1 | > 16 µg/mL | > 16 µg/mL | > 16 µg/mL | 8 µg/mL | > 16 µg/mL |  |  |  |  |  |  |  |  | 
CC(C)COC(=O)[C@H](Cn1ccnc1)NC(=O)c1ccc(-c2ccccc2F)c(F)c1 | 0.25 µg/mL | 0.0625 µg/mL | > 16 µg/mL | 0.0625 µg/mL | > 16 µg/mL | 8 µg/mL | 4 µg/mL |  |  |  |  |  |  | 
CC(C)OC(=O)[C@H](Cn1ccnc1)NC(=O)c1ccc(-c2ccccc2)cc1F | 0.25 µg/mL | 0.0312 µg/mL | > 16 µg/mL | 0.0312 µg/mL | 4 µg/mL | 16 µg/mL | 4 µg/mL | > 50 µM | 4.49 µM | 7.44 µM | 19.1 µM | 0.0429 µM | > 50 µM | > 50 µM
CC(C)COC(=O)[C@H](Cn1ccnc1)NC(=O)c1ccc(-c2ccccc2)cc1F | 0.25 µg/mL | 0.0312 µg/mL | > 16 µg/mL | 0.0312 µg/mL | 8 µg/mL |  |  |  |  |  |  |  |  | 
Cc1cc(-c2ccccc2)ccc1C(=O)N[C@@H](Cn1ccnc1)C(=O)OCC(C)C | > 16 µg/mL | 2 µg/mL | > 16 µg/mL | 0.5 µg/mL | > 16 µg/mL |  |  |  |  |  |  |  |  | 
CC(C)COC(=O)[C@H](Cn1ccnc1)NC(=O)c1ccc(-c2ccccc2)c(F)c1 | 0.25 µg/mL | 0.0312 µg/mL | > 16 µg/mL | 0.0312 µg/mL | 4 µg/mL |  |  |  |  |  |  |  |  | 
CC(C)OC(=O)[C@H](Cn1ccnc1)NC(=O)c1c(F)cc(-c2ccccc2)cc1F | 0.5 µg/mL | 2 µg/mL | > 16 µg/mL | 0.5 µg/mL | > 16 µg/mL |  |  |  |  |  |  |  |  | 
Cc1cc(C(=O)N[C@@H](Cn2ccnc2)C(=O)OCC(C)C)ccc1-c1ccccc1 | > 16 µg/mL | > 16 µg/mL | > 16 µg/mL | 4 µg/mL | > 16 µg/mL |  |  |  |  |  |  |  |  | 
OC(Cn1cncn1)(Cn1cncn1)c1ccc(F)cc1F [FLUCONAZOLE] | 0.5 µg/mL | 1 µg/mL | 4 µg/mL | 1 µg/mL | > 16 µg/mL | > 64 µg/mL | > 64 µg/mL |  |  |  |  |  |  | 
CC(C)OC(=O)[C@H](Cn1ccnc1)NC(=O)c1ccc(-c2ccccc2F)c(F)c1 | 0.0625 µg/mL | 0.0312 µg/mL | 8 µg/mL | 0.0312 µg/mL | > 16 µg/mL | 16 µg/mL | 2 µg/mL |  |  |  |  |  |  | 
COc1cc(-c2ccccc2)ccc1C(=O)N[C@@H](Cn1ccnc1)C(=O)OC(C)C | 8 µg/mL | 1 µg/mL | > 16 µg/mL | 1 µg/mL | > 16 µg/mL |  |  |  |  |  |  |  |  | 
CC(C)OC(=O)[C@H](Cn1ccnc1)NC(=O)c1ccc(-c2ccccc2)c(F)c1 | 0.5 µg/mL | 0.0312 µg/mL | 8 µg/mL | 0.0312 µg/mL | 2 µg/mL | 8 µg/mL | 2 µg/mL | > 50 µM | > 50 µM | 43.4 µM | > 50 µM | 4.05 µM | > 50 µM | > 50 µM
CC(C)OC(=O)[C@H](Cn1ccnc1)NC(=O)c1ccc(-c2ccccc2)c(Cl)c1 | 8 µg/mL | 8 µg/mL | 8 µg/mL | 1 µg/mL | > 16 µg/mL |  |  |  |  |  |  |  |  | 
CC(C)COC(=O)[C@H](Cn1ccnc1)NC(=O)c1c(F)cc(-c2ccccc2)cc1F | 0.5 µg/mL | 2 µg/mL | > 16 µg/mL | 2 µg/mL | > 16 µg/mL |  |  |  |  |  |  |  |  | 
COc1cc(-c2ccccc2)ccc1C(=O)N[C@@H](Cn1ccnc1)C(=O)OCC(C)C | > 16 µg/mL | 4 µg/mL | > 16 µg/mL | 2 µg/mL | > 16 µg/mL |  |  |  |  |  |  |  |  | 
CC(C)COC(=O)[C@H](Cn1ccnc1)NC(=O)c1ccc(-c2ccccc2F)cc1F | 0.5 µg/mL | 0.125 µg/mL | > 16 µg/mL | 0.25 µg/mL | > 16 µg/mL |  |  |  |  |  |  |  |  | 
CC(C)OC(=O)[C@H](Cn1ccnc1)NC(=O)c1ccc(-c2ccccc2)cc1Cl | 4 µg/mL | 8 µg/mL | 8 µg/mL | 0.5 µg/mL | > 16 µg/mL |  |  |  |  |  |  |  |  | 
Cc1cc(-c2ccccc2)ccc1C(=O)N[C@@H](Cn1ccnc1)C(=O)OC(C)C | > 16 µg/mL | 2 µg/mL | > 16 µg/mL | 0.5 µg/mL | > 16 µg/mL |  |  |  |  |  |  |  |  | 
CC(C)COC(=O)[C@H](Cn1ccnc1)NC(=O)c1ccc(-c2ccc(C#N)cc2)cc1F | > 16 µg/mL | > 16 µg/mL | > 16 µg/mL | 0.5 µg/mL | > 16 µg/mL |  |  |  |  |  |  |  |  | 
CC(C)OC(=O)[C@H](Cn1ccnc1)NC(=O)c1ccc(-c2ccccc2F)cc1F | 0.5 µg/mL | 0.125 µg/mL | > 16 µg/mL | 0.25 µg/mL | > 16 µg/mL |  |  |  |  |  |  |  |  | 
CC(C)OC(=O)[C@H](Cn1ccnc1)NC(=O)c1ccc(-c2ccc(C#N)cc2)cc1F | 8 µg/mL | 4 µg/mL | > 16 µg/mL | 2 µg/mL | > 16 µg/mL |  |  |  |  |  |  |  |  | 
